# In BindingDB's records for doi:10.1021/ml500238q (University of Bonn, 2014):
# pKi: −log10 of the molar value.
# Biological target: Cathepsin K (Homo sapiens) (UniProt P43235)
# Experiment: Inhibition of human cathepsin K using Z-Leu-Arg-AMC fluorogenic substrate incubated for 60 mins
row,Structure (SMILES),pKi
1,CN(C(=O)OC(C)(C)C)N(C#N)CC(=O)N1CCOCC1,7.51
2,CC(C)(C)OC(=O)NN(C#N)CC(=O)N(Cc1ccccc1)Cc1ccccc1,11.84
3,CN(Cc1ccccc1)C(=O)CN(C#N)NC(=O)OC(C)(C)C,11.38
4,CC(C)(C)OC(=O)NN(C#N)CC(=O)N1CCOCC1,10.96
